Measured values: US8143212B2 (Vicuron Pharmaceuticals Inc., priority 2002, dated 2012)

Tests used:
gram positive bacteria = assay: MIC by broth microdilution (NCCLS), with or without 30% bovine serum (Table 42); type: cell-based
Procedure: (§1) Before dissolution, each sample was analyzed by HPLC and quantified.
(§2) The microorganisms used were reference strains obtained from the American Type Culture Collection (ATCC) (Rockville, Md.), SmithKline and French Laboratories (SKF), and the Upjohn Company (UC) (Kalamazoo, Mich.).
(§3) MICs were determined by the broth microdilution methodology following the standard NCCLS procedure (NCCLS Document M7-A6, Vol. 23, No. 2, “Methods for dilution antimicrobial susceptibility tests for bacteria that grow aerobically.” Approved Guideline. January 2003, which can be herein incorporated by reference in its entirety), with or without 30% adult bovine serum (BS) (PAA Laboratories GMBH, Haidmannweg Pasching Austria), using bacterial innocula at approximately 5×10^5 CFU/ml. The media employed included cation-adjusted Müller Hinton broth (Difco Laboratories, Detroit, Mich.) that was used that was adjusted with CaCl2 and MgCl2 to a final concentration of 20 mg/L and 10 mg/L, respectively. Tests were read following 20-24 hours of incubation at 35° C.

gram-negative bacteria [1] = assay: MIC by broth microdilution (NCCLS) (Table 42); type: cell-based
Procedure: as §1, §2, §3

[2] = test system: panel of gram-positive bacteria; assay: MIC by broth microdilution (NCCLS) of IsoB0 and reference compounds (Table 44); type: cell-based
Procedure: Müller Hinton broth (Difco Laboratories, Detroit, Mich., USA) adjusted with CaCl2 and MgCl2 to a final concentrations of 20 mg/L and 10 mg/L respectively.
The microorganisms used are reference standard strains from the American Type Culture Collection (ATCC, Rockville, USA), Smith Kline and French Laboratories (SKF) and the Upjohn Company (UC, Kalamazoo, Mich., USA).
(§4) MICs were determined by the broth microdilution methodology following the standard NCCLS procedure, with or without 30% bovine serum, using bacterial inocula of approximately 5×10^5 CFU/mL. Tests were read after 20-24 h incubation at 35° C.

[3] = test system: Candida albicans SKF 2270; assay: MIC by broth microdilution (NCCLS) (Tables 42, 44); type: cell-based
[4] = test system: Escherichia coli, Proteus vulgaris, Pseudomonas aeruginosas; assay: MIC by broth microdilution (NCCLS) of IsoB0 and reference compounds (Table 44), non-gram-positive bacterial strains; type: cell-based
Procedure: as §4

gram-negative bacteria [5] = conditions: E. coli ATCC25922 ref. strain; NCCLS M100 S-12; cited from earlier work
[6] = ESI-MS of multimers in solution (concentration, pH, ionic strength); type: physicochemical
Procedure: Experiments were performed using an Applied Biosystem API III+ mass spectrometer equipped with a TurboIonSpray source, a Triple Quadrupole analyzer, operating in positive ion mode.
The mass spectra were obtained in electrospray positive mode on a Finnigan LCQ^Deca ion trap instrument previously tuned and calibrated in electrospray mode using Ultramark 1621, caffeine and MRFA (L-metionyl-arginyl-phenilalanyl-arginine).
The mass spectra were obtained in electrospray positive mode on a Finnigan LCQ^Deca ion trap instrument previous tuned and calibrated in electrospray mode using Ultramark 1621, caffeine and MRFA (L-metionyl-arginyl-phenilalanyl-arginine).

human albumin = human albumin (Homo sapiens, UniProt P02768); assay: Protein binding by isothermal titration microcalorimetry (Tables 27, 28); conditions: for Calculated percent Binding: Human albumin (6×10^−4 M)
Chain of human albumin (P02768 25-609): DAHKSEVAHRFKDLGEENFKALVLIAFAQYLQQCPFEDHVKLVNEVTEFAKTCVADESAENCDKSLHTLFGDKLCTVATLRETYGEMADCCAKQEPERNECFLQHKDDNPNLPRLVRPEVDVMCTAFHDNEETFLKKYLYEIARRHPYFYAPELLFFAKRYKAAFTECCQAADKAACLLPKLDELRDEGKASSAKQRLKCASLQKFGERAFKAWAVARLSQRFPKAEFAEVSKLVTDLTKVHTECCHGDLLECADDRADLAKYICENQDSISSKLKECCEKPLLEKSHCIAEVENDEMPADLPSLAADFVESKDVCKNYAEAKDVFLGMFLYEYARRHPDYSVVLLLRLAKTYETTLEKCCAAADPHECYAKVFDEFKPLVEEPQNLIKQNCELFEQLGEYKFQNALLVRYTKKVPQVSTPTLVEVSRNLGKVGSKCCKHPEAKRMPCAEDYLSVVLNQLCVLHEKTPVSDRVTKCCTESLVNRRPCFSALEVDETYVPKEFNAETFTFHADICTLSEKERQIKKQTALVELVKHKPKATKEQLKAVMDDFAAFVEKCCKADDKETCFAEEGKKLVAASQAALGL
Procedure: (§5) Integrated heat effects, after correction for heats of dilution, were analyzed by non-linear regression using a simple single-site binding model with the standard Microcal ORIGIN software package. Raw data (μcal/sec) for each injection were integrated to give the total heat effect per addition, then divided by amount of injectant to give kcal/mole of injectant. The same integration was applied for control dilution effects, and this was subtracted from the actual titration data. This provided a differential of the binding curve in which the extent of binding is proportional to the total heat liberated (or absorbed). This was then analyzed by non-linear regression methods in terms of various standard binding models. The simplest model assumes simple non-competitive binding equilibrium, and gives three parameters:

human α-glycoprotein = assay: as above; conditions: for Calculated percent Binding: Human α-glycoprotein ([…]10^−5 M)
Procedure: as §5

[7] = E. faecalis ATCC29212 ref. strain
[8] = Enterococcus faecalis ATCC 7080
[9] = S. aureus ATCC 29213 ref. strain
[10] = Staphylococcus aureus Smith ATCC 19636
[11] = Pseudomonas aeruginosas ATCC 10145

Gentamycin [reference compound]
MIC (gram positive bacteria; Bacillus subtilis ATCC 6633): 0.25 µg/mL | MIC (gram positive bacteria; [7]): 32 µg/mL | MIC (gram positive bacteria; [8]): 8 µg/mL | MIC (gram positive bacteria; [9]): 8 µg/mL | MIC (gram positive bacteria; S. aureus Smith + 30% BS): ≦0.125 mg/L | MIC (gram positive bacteria; S. epidermidis ATCC 12228): ≦0.125 mg/L | MIC (gram positive bacteria; S. pneumoniae Felton UC41): 8 µg/mL | MIC (gram positive bacteria; [10]): 0.5 µg/mL | MIC (gram positive bacteria; Streptococcus pyrogenes SKF 13400): 4 µg/mL | MIC (gram-negative bacteria [1]; E. coli ATCC25922 ref. strain): 1 µg/mL | MIC (gram-negative bacteria [1]; Escherichia coli SKF 12140): 2 µg/mL | MIC (gram-negative bacteria [1]; Proteus vulgaris ATCC 881): 2 µg/mL | MIC (gram-negative bacteria [1]; [11]): 1 µg/mL | MIC ([2]; Bacillus subtilis ATCC 6633): 0.25 µg/mL | MIC [2, 7]: 32 µg/mL | MIC [2, 8]: 8 µg/mL | MIC [2, 9]: 8 µg/mL | MIC ([2]; S. aureus Smith + 30% BS): ≦0.125 mg/L | MIC ([2]; S. epidermidis ATCC 12228): ≦0.125 mg/L | MIC ([2]; S. pneumoniae Felton UC41): 8 µg/mL | MIC [2, 10]: 0.5 µg/mL | MIC ([2]; Streptococcus pyogenes SKF13400): 4 µg/mL | MIC ([3]; Candida albicans SKF 2270 (Table 42)): >128 µg/mL | MIC ([3]; Candida albicans SKF2270 (Table 44)): >128 µg/mL | MIC ([4]; E. coli ATCC25922 ref. strain): 1 µg/mL | MIC ([4]; Escherichia coli SKF 12140): 2 µg/mL | MIC ([4]; Proteus vulgaris ATCC 881): 2 µg/mL | MIC [4, 11]: 1 µg/mL | Quality control range of MICs for reference strains (gram-negative bacteria [5]): ^3GE 0.25-1 mg/L

Teicoplanin
multimers in solution (ESI-MS) [6]: does not show multimeric complexes | Calculated percent Binding (human albumin; antibiotic 1 μM): 98.3% | Calculated percent Binding (human albumin; antibiotic 10 μM): 98.3% | Calculated percent Binding (human albumin; antibiotic 100 μM): 98.0% | apparent binding affinity (Ka) (human albumin; Human albumin, 25° C., pH 7.4): 0.96 (±0.08) ×10^5 M^−1 | Calculated percent Binding (human α-glycoprotein; antibiotic 1 μM): 9.6% | Calculated percent Binding (human α-glycoprotein; antibiotic 10 μM): 9.1% | Calculated percent Binding (human α-glycoprotein; antibiotic 100 μM): 6.0% | apparent binding affinity (Ka) (human α-glycoprotein; α-glycoprotein, 25° C.): 0.07 (±0.01) ×10^5 M^−1
